Measurements reported in ChEMBL document CHEMBL1146616, “Synthesis and structure-activity relationships of open D-Ring galanthamine analogues” (Bioorg Med Chem Lett, 2003).

Columns and labels:
Cholinesterase [1] = target: T1, Cholinesterase (Homo sapiens, UniProt P06276)
Description: In vitro inhibitory activity against Butyrylcholinesterase (BChE) in human serum

Acetylcholinesterase = Acetylcholinesterase (Electrophorus electricus, UniProt O42275)
Description: In vitro inhibitory activity against acetylcholinesterase (AChE) in Electrophorus electricus

Cholinesterase [2] = target: T1, Cholinesterase; test: Ratio of inhibitory activity against butyrylcholinesterase (BChE) to that of acetylcholinesterase (AChE)

Sequence of Acetylcholinesterase (O42275 whole entry): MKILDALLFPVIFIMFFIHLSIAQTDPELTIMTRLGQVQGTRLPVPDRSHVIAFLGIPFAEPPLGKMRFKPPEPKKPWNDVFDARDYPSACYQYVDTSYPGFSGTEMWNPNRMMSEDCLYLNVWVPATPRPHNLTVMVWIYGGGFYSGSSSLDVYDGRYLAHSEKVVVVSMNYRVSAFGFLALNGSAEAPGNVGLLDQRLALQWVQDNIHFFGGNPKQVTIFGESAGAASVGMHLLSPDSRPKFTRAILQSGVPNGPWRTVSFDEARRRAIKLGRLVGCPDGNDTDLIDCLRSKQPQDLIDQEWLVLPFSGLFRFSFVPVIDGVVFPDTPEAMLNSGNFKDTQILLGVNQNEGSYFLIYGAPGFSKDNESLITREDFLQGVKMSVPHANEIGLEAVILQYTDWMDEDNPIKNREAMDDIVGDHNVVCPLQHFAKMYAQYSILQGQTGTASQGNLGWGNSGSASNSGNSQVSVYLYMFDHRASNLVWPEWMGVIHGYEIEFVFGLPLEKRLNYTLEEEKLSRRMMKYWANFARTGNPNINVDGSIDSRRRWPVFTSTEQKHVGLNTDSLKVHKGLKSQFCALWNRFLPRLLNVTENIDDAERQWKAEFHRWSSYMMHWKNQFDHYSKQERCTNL
T1 sequence (P06276 whole entry): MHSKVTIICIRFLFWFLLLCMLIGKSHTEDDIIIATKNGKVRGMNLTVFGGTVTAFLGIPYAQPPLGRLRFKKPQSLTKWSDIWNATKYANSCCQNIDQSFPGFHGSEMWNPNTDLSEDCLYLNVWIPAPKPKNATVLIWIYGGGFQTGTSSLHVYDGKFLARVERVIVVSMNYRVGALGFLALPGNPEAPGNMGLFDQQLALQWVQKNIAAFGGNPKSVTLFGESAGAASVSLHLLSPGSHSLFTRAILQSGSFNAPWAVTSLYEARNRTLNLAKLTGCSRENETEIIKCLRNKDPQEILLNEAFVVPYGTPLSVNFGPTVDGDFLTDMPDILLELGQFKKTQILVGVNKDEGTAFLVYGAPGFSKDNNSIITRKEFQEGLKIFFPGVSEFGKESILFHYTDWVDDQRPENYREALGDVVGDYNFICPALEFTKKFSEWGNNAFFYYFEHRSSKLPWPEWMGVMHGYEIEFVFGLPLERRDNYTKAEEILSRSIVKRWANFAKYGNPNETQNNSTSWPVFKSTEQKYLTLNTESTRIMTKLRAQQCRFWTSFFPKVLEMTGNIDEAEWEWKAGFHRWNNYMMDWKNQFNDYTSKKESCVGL

Row | SMILES | IC50 (Cholinesterase [1]) [µM] | IC50 (Acetylcholinesterase) [µM] | Selectivity (Cholinesterase [2])
1 | COc1ccc2c3c1O[C@H]1C[C@@H](O)C=C[C@@]31CCN(C)OC2 | 960 | 9900 | –
2 | CCOC(=O)N1CC[C@@]23C=C[C@H](O)C[C@@H]2Oc2c(OC)ccc(c23)C1 | 300 | 67 | 4.5
3 | CCOC(=O)O[C@H]1C=C[C@@]2(CCN(C)C(=O)OCC)c3c(CCl)ccc(OC)c3O[C@H]2C1 | 790 | 650 | 1.2
4 | CCOC(=O)N(C)CC[C@@]12C=C[C@H](O)C[C@@H]1Oc1c(OC)ccc(CO)c12 | 216 | 580 | –
5 | CCOC(=O)N(C)CC[C@@]12C=C[C@H](O)C[C@@H]1Oc1c(OC)ccc(C=O)c12 | 155 | 1000 | –
